The target in this assay is T1, TLR7 (Mus musculus, UniProt P58681).
T1 construct: endogenous in cells; host or cells: RAW 264.7
T1 sequence (P58681 27-1050): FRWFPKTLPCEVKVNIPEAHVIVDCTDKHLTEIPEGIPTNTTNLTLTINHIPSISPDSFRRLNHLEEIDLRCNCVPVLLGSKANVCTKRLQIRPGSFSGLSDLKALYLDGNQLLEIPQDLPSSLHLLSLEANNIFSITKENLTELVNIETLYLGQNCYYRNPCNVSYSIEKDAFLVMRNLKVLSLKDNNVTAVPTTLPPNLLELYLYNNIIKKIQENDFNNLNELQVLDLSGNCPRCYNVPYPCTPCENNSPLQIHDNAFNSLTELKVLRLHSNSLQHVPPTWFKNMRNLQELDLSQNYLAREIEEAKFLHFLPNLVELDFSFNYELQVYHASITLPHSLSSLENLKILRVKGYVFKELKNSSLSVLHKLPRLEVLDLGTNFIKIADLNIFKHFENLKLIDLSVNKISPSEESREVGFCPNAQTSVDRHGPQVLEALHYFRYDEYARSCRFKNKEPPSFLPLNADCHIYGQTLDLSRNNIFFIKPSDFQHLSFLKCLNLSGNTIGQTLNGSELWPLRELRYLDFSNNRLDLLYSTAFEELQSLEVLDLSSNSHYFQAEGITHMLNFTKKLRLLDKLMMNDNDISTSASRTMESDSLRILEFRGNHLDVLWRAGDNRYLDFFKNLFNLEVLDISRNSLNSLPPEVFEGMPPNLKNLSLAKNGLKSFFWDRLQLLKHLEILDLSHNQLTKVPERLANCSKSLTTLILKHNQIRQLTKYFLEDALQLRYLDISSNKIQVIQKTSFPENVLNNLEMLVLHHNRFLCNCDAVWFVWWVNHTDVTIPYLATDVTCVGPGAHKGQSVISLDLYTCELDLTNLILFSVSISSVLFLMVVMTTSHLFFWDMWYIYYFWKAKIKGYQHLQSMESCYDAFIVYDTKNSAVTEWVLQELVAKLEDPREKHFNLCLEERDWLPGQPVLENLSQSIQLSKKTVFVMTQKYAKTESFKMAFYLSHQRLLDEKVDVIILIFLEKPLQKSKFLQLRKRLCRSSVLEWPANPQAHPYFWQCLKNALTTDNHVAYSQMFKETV
Description: TNF-α secretion ELISA after TLR7 agonist imiquimod (IMQ) in RAW 264.7 cells. It counts as cell-based. To be noted: for inhibitory activity against TLR7 activation (TNF-α secretion): SK01 and structural derivatives, inhibitor 1 h, then IMQ 4 h; for inhibitory activity against TLR7 (level of TNF-α secretion): SK21 to SK82 at 0.5 μM or 2 μM, Imiquimod 1 μg/ml. On the technique in general: In an ELISA, binding on a coated surface is turned into a signal by an enzyme label.

Entries after “also recorded” stand apart in the source; their conditions may differ.

As for `Cc1c(C)n(CCCN(C)C)c2nc3c(c(N)c12)CCCCC3` [SK16, 1-(3-(dimethylamino)propyl)-2,3-dimethyl-1,5,6,7,8,9-hexahydrocyclohepta[b]pyrrolo[3,2-e]pyridin-4-amine], the “inhibitory activity against TLR7 activation (TNF-α secretion)” value is given as “potent inhibitor; also recorded: best inhibitory activity among the structural analogues of SK01; also recorded: specifically inhibit”. `COc1ccc2c(c1)c1c(N)c3c(nc1n2CCCN(C)C)CCCC3` [SK50, 6-(3-(dimethylamino)propyl)-9-methoxy-2,3,4,6-tetrahydro-1H-indolo[2,3-b]quinolin-11-amine]: the “inhibitory activity against TLR7 (level of TNF-α secretion)” value was “significant inhibitory activity; also recorded: significantly reduced”. As to `Cc1c(C)n(CCN(C)C)c2nc3c(c(N)c12)CCCCC3` [SK01, 1-(2-(dimethylamino)ethyl)-2,3-dimethyl-1,5,6,7,8,9-hexahydrocyclohepta[b]pyrrolo[3,2-e]pyridin-4-amine], the “inhibitory activity against TLR7 activation (TNF-α secretion)” value is “inhibitory ability for TLR7/TLR9 activation was verified; also recorded: specifically inhibit”.

With `COC(=O)c1ccc2c(c1)c1c(N)c3c(nc1n2CCCN(C)C)CCCC3` [SK64, Methyl 11-amino-6-(3-(dimethylamino)propyl)-2,3,4,6-tetrahydro-1H-indolo[2,3-b]quinolin-9-carboxylate], the “inhibitory activity against TLR7 (level of TNF-α secretion)” value is recorded as “significant inhibitory activity; also recorded: significantly reduced”. On the same count and under the same terms, the same measure for `Cc1ccc2c(c1)c1c(N)c3c(nc1n2CCCN(C)C)CCCC3` [SK58, 6-(3-(dimethylamino)propyl)-9-methyl-2,3,4,6-tetrahydro-1H-indolo[2,3-b]quinolin-11-amine]: “significant inhibitory activity; also recorded: significantly reduced”; for `Cc1cc2c(N)c3c(nc2n1CCCN(C)C)CCCCCC3` [SK41, 1-(3-(dimethylamino)propyl)-2-methyl-5,6,7,8,9,10-hexahydro-1H-cycloocta[b]pyrrolo[3,2-e]pyridin-4-amine]: “significant inhibitory activity; also recorded: significantly reduced”.

The values above are taken from patent US12516058B2, “Small-molecule compounds for controlling endosomal toll-like receptors and therapeutic agent for autoimmune diseases using same” (priority 2020, dated 2026).
